Experiment [1] has as its system C5a-mediated AKT phosphorylation in Raw 264-7 macrophages. The experiment can be described thus: Cell based ELISA: Akt/PKB phosphorylation in macrophages after C5a stimulation. The settings on record: Mus musculus, RAW264.7, 5 min; compound at 10 μM; Raw 264-7 macrophages stimulated with 50 nM C5a for 5 minutes; read-out: percentage of inhibition of C5a-mediated AKT phosphorylation. How it is done: b) Cell Based ELISA to Monitor PI3K Inhibition:
Measurement of Akt/PKB phosphorylation in macrophages after stimulation with human recombinant Complement 5a (C5a) from Sigma (C5788): Raw 264: Raw 264-7 macrophages (cultured in DMEM-F12 medium containing 10% Fetal Calf serum and antibiotics) are plated at 20,000 cells/well in a 96 MTP 24 h before cell stimulation. Previous to the stimulation with 50 nM of Complement 5a during 5 minutes, Cells are serum starved for 2 h, and pre-treated with inhibitors for 20 minutes. After stimulation cells are fixed in 4% formaldehyde for 20 minutes and washed 3 times in PBS containing 1% Triton X-100 (PBS/Triton). Endogenous peroxidase is blocked by a 20 minutes incubation in 0.6% H2O2 and 0.1% Sodium Azide in PBS/Triton and washed 3 times in PBS/Triton. Cells are then blocked by 60 minutes incubation with 10% foetal calf serum in PBS/Triton. Next, phosphorylated AKWPKB is detected by an overnight incubation at 4° C. with first antibody (anti phospho Serine 473 Akt IHC, Cell Signalling) diluted 800-fold in PBS/Triton, containing 5% bovine serum albumin (BSA). […] The reaction is stopped by addition of 50 μl of 1 M SO4H2 and absorbance is read at 450 nm. […]
For orientation: An ELISA detects its analyte on a solid surface through an enzyme-linked reagent.

Experiment [2] addresses Human recombinant GST-PI3Kγ (Homo sapiens, UniProt P48736). The experiment is described as follows: High Throughput PI3K Lipid Kinase Assay (SPA, neomycin-coated beads). The experiment is classed as biochemical. How it is done: a) High Throughput PI3K Lipid Kinase Assay (Binding Assay):
The assay combines the scintillation proximity assay technology (SPA, Amersham) with the capacity of neomycin (a polycationic antibiotic) to bind phospholipids with high affinity and specificity. The Scintillation Proximity Assay is based on the properties of weakly emitting isotopes (such as ^3H, ^125I, ^33P). Coating SPA beads with neomycin allows the detection of phosphorylated lipid substrates after incubation with recombinant PI3K and radioactive ATP in the same well, by capturing the radioactive phospholipids to the SPA beads through their specific binding to neomycin.
To a 384 wells MTP containing 5 μl of the test compound of Formula (D) (solubilized in 6% DMSO; to yield a concentration of 100, 30, 10, 3, 1, 0.3, 0.1, 0.03, 0.01, 0.001 μM of the test compound), the following assay components are added. 1) 5 μl (58 ng) of Human recombinant GST-PI3Kγ (in Hepes 40 mM, pH 7.4, DTT 1 mM and ethylenglycol 5%) 2) 10 μl of lipid micelles and 3) 10 μl of Kinase buffer ([^33P]γ-ATP 45 μM/60 nCi, MgCl2 30 mM, DTT 1 mM, β-Glycerophosphate 1 mM, Na3VO4 100 μM, Na Cholate 0.3%, in Hepes 40 mM, pH 7.4). After incubation at room temperature for 180 minutes, with gentle agitation, the reaction is stopped by addition of 60 μl of a solution containing 100 μg of neomycin-coated PVT SPA beads in PBS containing ATP 10 mM and EDTA 5 mM. The assay is further incubated at room temperature for 60 minutes with gentle agitation to allow binding of phospholipids to neomycin-SPA beads. After precipitation of the neomycin-coated PVT SPA beads for 5 minutes at 1500×g, radioactive PtdIns(3)P is quantified by scintillation counting in a Wallac MicroBeta™ plate counter.
The values indicated in respect of PI3Kγ refer to the IC50 (μM), i.e. the amount necessary to achieve 50% inhibition of said target. Said values show a considerable potency of the 2-imino-azolinone-vinyl fused-benzene compounds with regard to PI3Kγ.

The next experiment relates to Class I PI3-kinases. The settings on record: cited from earlier work.

pIC50: −log10 of the molar value. Like-named read-outs stand apart in the source and are kept apart here.

Human recombinant GST-PI3Kγ, sequence (P48736 whole entry): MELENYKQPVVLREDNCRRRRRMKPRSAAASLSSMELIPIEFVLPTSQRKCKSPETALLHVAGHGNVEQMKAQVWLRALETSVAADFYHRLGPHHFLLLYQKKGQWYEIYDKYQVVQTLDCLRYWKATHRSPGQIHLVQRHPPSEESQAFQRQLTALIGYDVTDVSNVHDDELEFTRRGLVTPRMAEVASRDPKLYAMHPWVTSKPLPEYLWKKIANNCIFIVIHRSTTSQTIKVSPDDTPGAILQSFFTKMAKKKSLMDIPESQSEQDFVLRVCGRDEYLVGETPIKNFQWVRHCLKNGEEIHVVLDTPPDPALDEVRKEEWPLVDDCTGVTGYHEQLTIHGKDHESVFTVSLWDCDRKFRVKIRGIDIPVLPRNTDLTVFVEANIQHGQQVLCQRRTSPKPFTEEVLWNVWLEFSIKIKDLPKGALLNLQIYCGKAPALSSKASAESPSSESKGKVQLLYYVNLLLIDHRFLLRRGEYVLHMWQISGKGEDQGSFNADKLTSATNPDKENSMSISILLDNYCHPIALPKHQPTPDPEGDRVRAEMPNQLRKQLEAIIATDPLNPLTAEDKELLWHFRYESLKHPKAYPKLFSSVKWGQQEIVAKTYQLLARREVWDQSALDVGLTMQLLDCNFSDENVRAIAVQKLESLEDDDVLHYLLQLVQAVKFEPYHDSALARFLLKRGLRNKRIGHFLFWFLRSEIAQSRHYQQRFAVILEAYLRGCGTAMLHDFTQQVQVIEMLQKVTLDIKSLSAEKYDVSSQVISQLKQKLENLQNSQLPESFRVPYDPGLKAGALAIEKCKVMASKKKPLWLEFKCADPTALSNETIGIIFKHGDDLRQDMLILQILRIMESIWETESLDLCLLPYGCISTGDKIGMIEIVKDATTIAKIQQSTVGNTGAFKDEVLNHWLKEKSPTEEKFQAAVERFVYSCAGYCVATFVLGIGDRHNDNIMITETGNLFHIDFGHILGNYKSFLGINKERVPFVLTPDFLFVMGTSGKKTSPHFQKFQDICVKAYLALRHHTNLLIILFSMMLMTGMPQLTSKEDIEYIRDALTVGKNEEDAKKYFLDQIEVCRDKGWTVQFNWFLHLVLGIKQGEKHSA

In general, inhibition refers to the relative decrease from the control value, in per cent. Regarding `O=C1N/C(=N\S(=O)(=O)c2ccccc2)S/C1=C\c1ccc2c(c1)OCO2` [Example 8, N-(5-Benzo[1,3]dioxol-5-ylmethylene-4-oxo-thiazolidin-2-ylidene)-benzenesulfonamide], in experiment [1], the inhibition at 10 µM was found to be 100%.

For the compound `CS(=O)(=O)/N=C1\NC(=O)/C(=C/c2ccc3c(c2)OCO3)S1` [Example 10, N-(5-Benzo[1,3]dioxol-5-ylmethylene-4-oxo-thiazolidin-2-ylidene)-methanesulfonamide], in experiment [1], the inhibition at 10 µM worked out at 80%.

What is called pIC50 is the negative decadic logarithm of the IC50, by convention in mol/L. Turning to `COC(=O)c1sccc1S(=O)(=O)N=C1NC(=O)/C(=C/c2ccc3ncccc3c2)S1` [Example 16, 3-(4-Oxo-5-quinolin-6-ylmethylene-thiazolidin-2-ylidenesulfamoyl)-thiophene-2-carboxylic acid methyl ester], the pIC50 in experiment [2] is > 6.00.

As to `CO/N=C1\NC(=O)/C(=C/c2ccc3c(c2)OCO3)S1` [Example 20, 5-Benzo[1,3]dioxol-5-ylmethylene-thiazolidine-2,4-dione 2-(O-methyl-oxime)], the pIC50 in experiment [2] was > 6.00.

Take `N#CN=C1NC(=O)/C(=C/c2ccc3nccnc3c2)S1` [Example 21, 4-Oxo-5-quinoxalin-6-ylmethylene-thiazolidin-2-ylidene-cyanamide]: in experiment [2], the pIC50 was > 6.00.

For `O=C1NC(=NCc2ccccc2)S/C1=C\c1ccc2c(c1)OCO2` [Example 22, 5-Benzo[1,3]dioxol-5-ylmethylene-2-benzylimino-thiazolidin-4-one], in experiment [2], the pIC50 is > 5.82.

As for `CN=C1NC(=O)/C(=C/c2ccc3ncnc(N(C)C)c3c2)S1` [Example 26, 5-(4-Dimethylamino-quinazolin-6-ylmethylene)-2-methylimino-thiazolidin-4-one], the pIC50 in experiment [2] was > 6.00.

`O=c1cc(N2CCOCC2)oc2c(-c3ccccc3)cccc12` [LY294002]: the negative logarithm of the IC50 (pIC50) with Class I PI3-kinases (Fruman et al. 1998, read-out: IC50 values against each of these PI3-kinases) was 4.70 to 4.82.

Take wortmannin: the negative-log IC50 (pIC50) in the experiment on Class I PI3-kinases (read-out: IC50 values against each of the various Class I PI3-kinases) was 8.00 to 9.00.

The values are drawn from patent US8106214B2, “2-imino-4-(thio) oxo-5-polycyclovinylazolines for use as PI3 kinase inhibitors” (Merck Serono SA, priority 2003, dated 2012).
